According to ChEMBL document CHEMBL4706474, “Tetrahydro-2-naphthyl and 2-Indanyl Triazolopyrimidines Targeting Plasmodium falciparum Dihydroorotate Dehydrogenase Display Potent and Selective Antimalarial Activity” (J Med Chem, 2016):
≈ marks a conversion by molar mass, not a printed value. Calls of active or inactive are those of the source. No cut-off for these calls is given here.

Assays:
[1] = Tmax in Swiss mouse at 20 mg/kg, po administered as single dose via gavage measured over 24 hrs by LC-MS analysis; format: ADME, organism-based; details: in vivo
[2] = Oral bioavailability in Sprague-Dawley rat at 17.5 mg/kg measured over 24 hrs by LC-MS analysis; format: ADME, organism-based; details: in vivo
[3] = Elimination half-life in Swiss mouse at 20 mg/kg, po administered as single dose via gavage measured over 24 hrs by LC-MS analysis; format: ADME, organism-based; details: in vivo, read-out: beta t1/2 (converted)
[4] = Unbound AUC (0 to infinity) in Sprague-Dawley rat at 17.5 mg/kg, po measured over 24 hrs by LC-MS analysis; format: ADME, organism-based; details: in vivo
[5] = AUC (0 to infinity) in Sprague-Dawley rat at 17.5 mg/kg, po measured over 24 hrs by LC-MS analysis; format: ADME, organism-based; parameters: route oral, dose 17.5 mg/kg, time >24; details: in vivo
Cytochrome P450 3A4 = Cytochrome P450 3A4 (Homo sapiens, UniProt P08684); test: Inhibition of CYP3A4 in human liver microsomes using isoform-specific probe substrates in presence of NADPH-generating system by LC-MS analysis; format: ADME; details: read-out: IC50
Chain of Cytochrome P450 3A4 (P08684 whole entry, canonical isoform): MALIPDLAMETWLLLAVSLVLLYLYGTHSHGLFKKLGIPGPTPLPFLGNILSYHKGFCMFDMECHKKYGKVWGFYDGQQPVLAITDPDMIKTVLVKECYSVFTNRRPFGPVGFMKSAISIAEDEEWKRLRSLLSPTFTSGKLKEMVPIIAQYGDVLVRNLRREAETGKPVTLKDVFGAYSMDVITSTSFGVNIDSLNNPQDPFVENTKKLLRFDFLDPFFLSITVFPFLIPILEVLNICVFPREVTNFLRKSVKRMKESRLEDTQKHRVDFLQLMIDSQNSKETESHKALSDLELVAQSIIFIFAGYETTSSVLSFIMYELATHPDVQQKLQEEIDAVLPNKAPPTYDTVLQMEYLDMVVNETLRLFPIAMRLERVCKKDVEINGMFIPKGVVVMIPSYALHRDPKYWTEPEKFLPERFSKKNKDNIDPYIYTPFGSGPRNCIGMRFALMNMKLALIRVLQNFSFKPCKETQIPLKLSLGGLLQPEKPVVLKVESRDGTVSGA

[6] = Unbound AUC (0 to infinity) in Sprague-Dawley rat at […], iv by LC-MS analysis; format: ADME, organism-based; details: in vivo, dose 1.6 mg/kg
[7] = AUC (0 to infinity) in Swiss mouse at 20 mg/kg, po administered as single dose via gavage measured over 24 hrs by LC-MS analysis; format: ADME, organism-based; parameters: route oral, dose 20 mg/kg, time >24; details: in vivo
Cytochrome P450 2C8 = target: T1, Cytochrome P450 2C8 (Homo sapiens, UniProt P10632); test: Inhibition of CYP2C8 in human liver microsomes using isoform-specific probe substrates in presence of NADPH-generating system by LC-MS analysis; format: ADME
T1 sequence (P10632 whole entry): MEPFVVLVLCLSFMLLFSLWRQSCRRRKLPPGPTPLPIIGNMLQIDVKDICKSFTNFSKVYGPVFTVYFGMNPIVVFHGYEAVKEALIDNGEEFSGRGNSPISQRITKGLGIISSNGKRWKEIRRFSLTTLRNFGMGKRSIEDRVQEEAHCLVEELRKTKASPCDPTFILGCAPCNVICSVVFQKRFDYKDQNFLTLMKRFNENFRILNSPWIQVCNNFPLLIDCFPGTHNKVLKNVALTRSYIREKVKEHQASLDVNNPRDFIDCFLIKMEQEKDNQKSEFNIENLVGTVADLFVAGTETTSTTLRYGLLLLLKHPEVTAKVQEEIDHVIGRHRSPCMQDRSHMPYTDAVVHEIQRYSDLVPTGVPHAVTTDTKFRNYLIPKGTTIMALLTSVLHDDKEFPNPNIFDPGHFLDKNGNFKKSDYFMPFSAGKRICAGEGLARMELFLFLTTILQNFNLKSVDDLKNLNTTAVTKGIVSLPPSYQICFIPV

[8] = Inhibition of N-terminal His6-tagged dog DHODH expressed in Escherichia coli BL21 using L-DHO as substrate and CoQ as co-substrate by DCIP dye based spectrophotometric assay; parameters: species or system Canis lupus familiaris
Plasmodium falciparum = test: Antimalarial activity against chloroquine, quinine, mefloquine, pyrimethamine, cycloguanil and sulfadoxine resistant Plasmodium falciparum Dd2; format: functional, organism-based
[9] = Protein binding in Swiss mouse plasma at 20 mg/kg, po administered as single dose via gavage measured over 24 hrs by LC-MS analysis; format: ADME, organism-based; details: read-out: PPB (converted)
[10] = Protein binding in Sprague-Dawley rat plasma at […], iv administered as infusion for 10 mins by LC-MS analysis; format: ADME, organism-based; details: dose 1.6 mg/kg, read-out: PPB (converted)
[11] = Inhibition of yeast DHODH expressed in Plasmodium falciparum; parameters: species or system Saccharomyces cerevisiae
[12] = Unbound clearance in Sprague-Dawley rat at […], iv administered as infusion for 10 mins by LC-MS analysis; format: ADME, organism-based; details: in vivo, dose 1.6 mg/kg
[13] = target: Dihydroorotate dehydrogenase (quinone), mitochondrial (Rattus norvegicus, UniProt Q63707); test: Inhibition of N-terminal His6-tagged rat DHODH expressed in Escherichia coli BL21 expressed in Escherichia coli BL21 using L-DHO as substrate and CoQ as co-substrate by DCIP dye based spectrophotometric assay
Chain of Dihydroorotate dehydrogenase (quinone), mitochondrial (Q63707 whole entry, the tested form may be a part): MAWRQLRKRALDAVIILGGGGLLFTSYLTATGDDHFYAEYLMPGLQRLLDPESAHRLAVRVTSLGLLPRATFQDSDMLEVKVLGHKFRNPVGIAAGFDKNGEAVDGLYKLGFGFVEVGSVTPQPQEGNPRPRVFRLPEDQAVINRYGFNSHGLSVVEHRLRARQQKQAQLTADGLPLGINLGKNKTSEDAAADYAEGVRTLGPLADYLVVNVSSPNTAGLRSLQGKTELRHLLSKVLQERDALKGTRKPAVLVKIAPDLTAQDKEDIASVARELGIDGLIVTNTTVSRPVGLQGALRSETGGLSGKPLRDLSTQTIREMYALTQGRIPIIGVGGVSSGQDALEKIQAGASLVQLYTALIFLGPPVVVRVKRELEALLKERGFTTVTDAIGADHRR

[14] = Apparent half-life in rat Sprague-Dawley at […], iv administered as infusion for 10 mins by LC-MS analysis; format: ADME, organism-based; details: in vivo, dose 1.6 mg/kg
[15] = Unbound volume of distribution at steady state in Sprague-Dawley rat at […], iv administered as infusion for 10 mins by LC-MS analysis; format: ADME, organism-based; details: in vivo, dose 1.6 mg/kg
[16] = Unbound Cmax in Sprague-Dawley rat at 17.5 mg/kg, po measured over 24 hrs by LC-MS analysis; format: ADME, organism-based; details: in vivo
[17] = Volume of distribution at steady state in Sprague-Dawley rat at […], iv administered as infusion for 10 mins by LC-MS analysis; format: ADME, organism-based; details: in vivo, dose 1.6 mg/kg
[18] = Cmax in Swiss mouse at 20 mg/kg, po administered as single dose via gavage measured over 24 hrs by LC-MS analysis; format: ADME, organism-based; parameters: route oral, dose 20 mg/kg, time >24; details: in vivo
[19] = Solubility of compound in FeSSIF at pH 5 measured after 5 to 6 hrs by HPLC-UV based analysis; format: physicochemical; details: simulated gi fluid, time 5-6 hrs
[20] = Protein binding in Sprague-Dawley rat plasma at 1.8 mg/kg, iv administered as infusion for 10 mins by LC-MS analysis; format: ADME, organism-based; details: read-out: PPB (converted)
[21] = Oral bioavailability in Sprague-Dawley rat at 21.3 mg/kg measured over 24 hrs by LC-MS analysis; format: ADME, organism-based; details: in vivo
[22] = Unbound Cmax in Sprague-Dawley rat at 21.3 mg/kg, po measured over 24 hrs by LC-MS analysis; format: ADME, organism-based; details: in vivo
[23] = Solubility of compound in FeSSIF at pH 5.8 measured after 5 to 6 hrs by HPLC-UV based analysis; format: physicochemical; details: simulated gi fluid, time 5-6 hrs
[24] = Volume of distribution at steady state in Sprague-Dawley rat at 1.8 mg/kg, iv administered as infusion for 10 mins by LC-MS analysis; format: ADME, organism-based; details: in vivo
[25] = Unbound AUC (0 to infinity) in Sprague-Dawley rat at 1.8 mg/kg, iv by LC-MS analysis; format: ADME, organism-based; details: in vivo
[26] = Apparent half-life in Sprague-Dawley rat at 1.8 mg/kg, iv administered as infusion for 10 mins by LC-MS analysis; format: ADME, organism-based; details: in vivo, read-out: t1/2(app) (converted)
[27] = Unbound clearance in Sprague-Dawley rat at 1.8 mg/kg, iv administered as infusion for 10 mins by LC-MS analysis; format: ADME, organism-based; details: in vivo
[28] = Tmax in Sprague-Dawley rat at 21.3 mg/kg, po measured over 24 hrs by LC-MS analysis; format: ADME, organism-based; details: in vivo
[29] = Cmax in Sprague-Dawley rat at 21.3 mg/kg, po measured over 24 hrs by LC-MS analysis; format: ADME, organism-based; parameters: route oral, dose 21.3 mg/kg, time >24; details: in vivo
[30] = Unbound volume of distribution at steady state Sprague-Dawley in rat at 1.8 mg/kg, iv administered as infusion for 10 mins by LC-MS analysis; format: ADME, organism-based; details: in vivo
[31] = Unbound AUC (0 to infinity) in Sprague-Dawley rat at 21.3 mg/kg, po measured over 24 hrs by LC-MS analysis; format: ADME, organism-based; details: in vivo
[32] = AUC (0 to infinity) in Sprague-Dawley rat at 1.8 mg/kg, iv administered as infusion for 10 mins by LC-MS analysis; format: ADME, organism-based; parameters: route intravenous, time 10 min, dose 1.8 mg/kg; details: in vivo

SMILES: Cc1cc(N[C@H]2CCc3ccc(Cl)cc3C2)n2nc(C(C)(F)F)nc2n1
- Tmax [1]: 1 h
- bioavailability [2]: 67%
- half-life [3]: 2 h
- fAUC [4]: 0.89 µM·h
- AUC [5]: 24.6 µM·h
- IC50 (Cytochrome P450 3A4): > 20 µM
- fAUC [6]: 0.12 µM·h
- AUC [7]: 22.7 µM·h
- IC50 (Cytochrome P450 2C8): > 20 µM
- IC50 [8]: > 100 µM
- Activity (Plasmodium falciparum): Active
- fraction unbound at 24 h [9]: 0.026
- fraction unbound at 10 min [10]: 0.035
- EC50 [11]: 8.6 µM
- CL free [12]: 589 mL/min/kg
- IC50 [13]: > 100 µM
- t1/2(app) [14]: 5.9 h
- fVdss [15]: 186 L/kg
- fCmax [16]: 0.12 µM
- Vdss [17]: 6.7 L/kg
- Cmax [18]: 5 µM
- solubility [19]: 36 µg/mL (≈ 95.3 µM)

SMILES: Cc1cc(NC2Cc3cc(F)c(F)cc3C2)n2nc(C(C)(F)F)nc2n1
- half-life [3]: 2 h
- fraction unbound at 10 min [20]: 0.058
- IC50 (Cytochrome P450 3A4): > 20 µM
- bioavailability [21]: 63%
- AUC [7]: 169 µM·h
- fCmax [22]: 0.72 µM
- solubility [23]: 65 µg/mL (≈ 178 µM)
- IC50 [8]: > 100 µM
- Activity (Plasmodium falciparum): Active
- Vdss [24]: 2.7 L/kg
- fraction unbound at 24 h [9]: 0.047
- fAUC [25]: 1.57 µM·h
- IC50 [13]: > 100 µM
- half-life [26]: 11.2 h
- CL free [27]: 52 mL/min/kg
- Tmax [28]: 4 h
- Cmax [29]: 12.5 µM
- fVdss [30]: 47 L/kg
- fAUC [31]: 11.7 µM·h
- AUC(0-inf) [32]: 27.1 µM·h
